Holding throughout (assay): cell-based
In one assay the target is T1, human α6/α3β4 nAChR (Homo sapiens, UniProt P30926+P32297+Q15825).
T1 construct: expressed in transfected cells; host or cells: Xenopus laevis oocytes (cRNA injection, 1:1 ratio)

A further assay concerns the target T2, human α6/α3β2β3 nAChR (Homo sapiens, UniProt P17787+P32297+Q05901+Q15825).
T2 construct: expressed in transfected cells; host or cells: Xenopus laevis oocytes (cRNA injection, 1:1 ratio)

In the next assay the target is T3, human α3β4 nAChR (Homo sapiens, UniProt P30926+P32297).
T3 construct: expressed in transfected cells; host or cells: Xenopus laevis oocytes (cRNA injection, 1:1 ratio)

The structures appear in SMILES notation. Where a SMILES comes first, the peptide text is derived from it. Bridges are numbered along the chain shown (N, C = ends). [ ]: non-standard residue; d: D form. Hyp = O=C(O)[C@@H]1C[C@@H](O)CN1

T1 sequence (P30926 whole entry, looked up): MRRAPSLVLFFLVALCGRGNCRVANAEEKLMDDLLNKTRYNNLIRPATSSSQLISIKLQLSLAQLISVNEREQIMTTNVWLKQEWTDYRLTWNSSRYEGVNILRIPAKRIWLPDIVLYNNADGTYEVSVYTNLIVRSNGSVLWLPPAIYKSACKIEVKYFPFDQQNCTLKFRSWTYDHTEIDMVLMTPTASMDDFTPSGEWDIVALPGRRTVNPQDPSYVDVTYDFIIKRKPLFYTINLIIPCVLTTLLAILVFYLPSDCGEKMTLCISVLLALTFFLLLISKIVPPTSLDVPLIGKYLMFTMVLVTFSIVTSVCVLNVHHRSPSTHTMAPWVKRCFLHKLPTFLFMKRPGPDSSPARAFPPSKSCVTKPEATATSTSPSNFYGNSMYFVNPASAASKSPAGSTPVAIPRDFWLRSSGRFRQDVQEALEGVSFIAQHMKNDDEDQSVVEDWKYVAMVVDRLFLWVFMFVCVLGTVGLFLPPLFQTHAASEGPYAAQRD
T1 sequence (P32297 whole entry, looked up): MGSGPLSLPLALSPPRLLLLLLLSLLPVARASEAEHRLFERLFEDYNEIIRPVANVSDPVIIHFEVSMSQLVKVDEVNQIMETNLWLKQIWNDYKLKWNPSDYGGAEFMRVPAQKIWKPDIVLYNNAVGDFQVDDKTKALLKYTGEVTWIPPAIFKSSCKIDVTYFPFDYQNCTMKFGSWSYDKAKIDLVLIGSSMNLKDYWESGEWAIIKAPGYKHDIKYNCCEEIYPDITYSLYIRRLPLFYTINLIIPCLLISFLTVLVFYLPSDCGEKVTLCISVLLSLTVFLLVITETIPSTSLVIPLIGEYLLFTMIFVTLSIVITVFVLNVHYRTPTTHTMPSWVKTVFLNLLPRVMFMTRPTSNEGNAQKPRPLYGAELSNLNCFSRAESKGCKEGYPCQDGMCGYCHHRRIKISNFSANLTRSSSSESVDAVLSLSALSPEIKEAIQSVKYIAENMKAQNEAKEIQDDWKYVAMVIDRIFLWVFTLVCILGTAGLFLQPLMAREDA
T1 sequence (Q15825 whole entry, looked up): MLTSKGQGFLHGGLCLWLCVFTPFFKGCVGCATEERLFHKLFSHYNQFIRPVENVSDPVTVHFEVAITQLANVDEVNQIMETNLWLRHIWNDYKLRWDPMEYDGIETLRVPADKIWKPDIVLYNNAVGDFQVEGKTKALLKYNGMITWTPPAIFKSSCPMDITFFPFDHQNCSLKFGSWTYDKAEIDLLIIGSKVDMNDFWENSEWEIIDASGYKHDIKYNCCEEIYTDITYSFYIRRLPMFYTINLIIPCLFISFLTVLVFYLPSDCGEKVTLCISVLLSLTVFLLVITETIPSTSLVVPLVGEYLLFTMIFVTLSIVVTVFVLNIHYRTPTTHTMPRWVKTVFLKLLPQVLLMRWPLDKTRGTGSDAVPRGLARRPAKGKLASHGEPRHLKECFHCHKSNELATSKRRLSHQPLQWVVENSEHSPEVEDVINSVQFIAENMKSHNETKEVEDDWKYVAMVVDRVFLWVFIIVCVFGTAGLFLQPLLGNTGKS
T3 sequence (P32297 32-505 limits assumed): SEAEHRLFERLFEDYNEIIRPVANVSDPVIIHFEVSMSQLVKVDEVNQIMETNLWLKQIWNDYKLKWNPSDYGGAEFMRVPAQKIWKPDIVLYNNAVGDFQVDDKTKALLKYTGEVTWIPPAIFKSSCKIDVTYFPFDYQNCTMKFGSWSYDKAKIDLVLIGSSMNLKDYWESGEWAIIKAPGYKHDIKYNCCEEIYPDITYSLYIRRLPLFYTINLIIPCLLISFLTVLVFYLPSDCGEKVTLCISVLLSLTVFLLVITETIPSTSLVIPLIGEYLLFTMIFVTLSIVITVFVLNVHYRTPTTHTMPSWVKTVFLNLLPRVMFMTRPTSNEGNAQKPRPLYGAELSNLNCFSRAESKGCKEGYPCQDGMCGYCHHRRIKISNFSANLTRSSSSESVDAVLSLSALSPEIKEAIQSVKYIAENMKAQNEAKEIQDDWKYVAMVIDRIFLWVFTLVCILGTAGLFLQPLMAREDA
T3 sequence (P30926 22-498 limits assumed): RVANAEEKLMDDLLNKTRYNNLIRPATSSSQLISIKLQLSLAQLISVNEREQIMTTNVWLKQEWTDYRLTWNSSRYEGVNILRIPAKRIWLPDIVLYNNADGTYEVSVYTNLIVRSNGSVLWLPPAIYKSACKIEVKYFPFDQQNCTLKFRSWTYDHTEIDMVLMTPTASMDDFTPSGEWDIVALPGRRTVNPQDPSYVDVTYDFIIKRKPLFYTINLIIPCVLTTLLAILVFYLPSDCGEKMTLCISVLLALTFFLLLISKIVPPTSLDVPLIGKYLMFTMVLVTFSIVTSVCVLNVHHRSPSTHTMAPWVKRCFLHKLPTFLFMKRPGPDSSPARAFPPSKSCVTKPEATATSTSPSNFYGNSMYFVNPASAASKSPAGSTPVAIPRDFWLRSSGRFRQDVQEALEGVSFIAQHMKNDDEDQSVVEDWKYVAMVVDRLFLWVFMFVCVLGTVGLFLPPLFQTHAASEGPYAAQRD
T2 sequence (P17787 whole entry, looked up): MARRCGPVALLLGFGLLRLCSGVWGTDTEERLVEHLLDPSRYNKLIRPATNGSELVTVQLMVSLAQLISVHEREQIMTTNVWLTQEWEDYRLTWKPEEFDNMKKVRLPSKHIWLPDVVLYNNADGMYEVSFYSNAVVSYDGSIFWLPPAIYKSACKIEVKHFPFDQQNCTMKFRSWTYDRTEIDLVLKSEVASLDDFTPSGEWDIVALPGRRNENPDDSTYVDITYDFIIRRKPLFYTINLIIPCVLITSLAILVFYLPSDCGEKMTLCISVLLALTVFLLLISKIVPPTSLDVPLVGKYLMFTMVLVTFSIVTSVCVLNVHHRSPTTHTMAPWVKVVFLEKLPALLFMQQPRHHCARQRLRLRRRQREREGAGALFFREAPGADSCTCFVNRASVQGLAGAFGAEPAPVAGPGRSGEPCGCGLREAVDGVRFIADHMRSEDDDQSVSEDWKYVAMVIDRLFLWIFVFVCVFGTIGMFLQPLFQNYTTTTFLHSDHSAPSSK
T2 sequence (P32297 whole entry, looked up): as the sequence (P32297 whole entry, looked up) above
T2 sequence (Q05901 whole entry, looked up): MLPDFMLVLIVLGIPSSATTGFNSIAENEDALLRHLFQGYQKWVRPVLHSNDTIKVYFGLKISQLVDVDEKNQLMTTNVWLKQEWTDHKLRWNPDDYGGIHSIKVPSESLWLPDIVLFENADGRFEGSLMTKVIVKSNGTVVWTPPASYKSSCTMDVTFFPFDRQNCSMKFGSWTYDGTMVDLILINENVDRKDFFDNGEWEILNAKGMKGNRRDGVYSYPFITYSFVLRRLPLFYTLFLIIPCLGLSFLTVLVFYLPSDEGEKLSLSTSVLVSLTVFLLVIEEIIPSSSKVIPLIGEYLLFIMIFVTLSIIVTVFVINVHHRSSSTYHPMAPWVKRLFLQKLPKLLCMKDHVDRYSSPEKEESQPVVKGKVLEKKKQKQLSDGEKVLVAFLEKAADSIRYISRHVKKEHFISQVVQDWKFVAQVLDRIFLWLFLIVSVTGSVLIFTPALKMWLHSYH
T2 sequence (Q15825 whole entry, looked up): as the sequence (Q15825 whole entry, looked up) above

The IC50 is the midpoint of a concentration-inhibition curve. A low value points to inhibition by little substance. With `CC(C)C[C@@H]1NC(=O)[C@H](C(C)C)NC(=O)[C@H](C)NC(=O)[C@@H]2CSSC[C@H](NC(=O)CN)C(=O)N[C@@H](CSSC[C@@H](C(N)=O)NC(=O)[C@H](Cc3ccc(O)cc3)NC1=O)C(=O)N[C@@H](CO)C(=O)N[C@@H](C)C(=O)N1C[C@H](O)C[C@H]1C(=O)N1CCC[C@H]1C(=O)N2` [BuIA[T5A,P6O]] (H-GCCSA[Hyp]PCAVLYC-NH2; disulfide 2-8, 3-13), the IC50 at human α6/α3β4 nAChR was 11.1 nM; against human α6/α3β2β3 nAChR, greater than 10000 nM. Further, the “fold selectivity, α6/α3β4 over α6/α3β2β3 (IC50 ratio)” value on human α6/α3β4 nAChR is greater than 900 fold.

As to `CC(C)C[C@@H]1NC(=O)[C@H](C)NC(=O)[C@@H]2CSSC[C@H](NC(=O)CN)C(=O)N[C@@H](CSSC[C@@H](C(N)=O)NC(=O)[C@H](C)NC(=O)[C@H](CC(N)=O)NC(=O)[C@H](CO)NC(=O)[C@H](Cc3cnc[nH]3)NC(=O)[C@H](CCC(=O)O)NC1=O)C(=O)N[C@@H](CO)C(=O)N[C@@H](CC(N)=O)C(=O)N1CCC[C@H]1C(=O)N[C@@H](C(C)C)C(=O)N2` [MII[H9A,L15A]] (H-GCCSNPVCALEHSNAC-NH2; disulfide 2-8, 3-16), the IC50 against human α6/α3β4 nAChR stood at 13.3 nM; against human α3β4 nAChR it was 1400 nM.
